Each block holds one compound with its values, some of them ahead of it.
Columns and labels:
[1] = system: Receptor-type tyrosine-protein kinase FLT3 (Homo sapiens), P36888 [UNDEFINED MUTATION]; assay: Selectivity interaction (KinomeScan (DiscoverX)) EUB0000311b FLT3; conditions: at 1 µM
[2] = target: T1, Protein arginine N-methyltransferase 9 (Homo sapiens) (UniProt Q6P2P2); assay: Selectivity interaction (Transferase panel (protein, RNA, and DNA methyltransferases. and EP300 (acetyltransferase))) EUB0000270b PRMT9
T1 sequence (whole entry): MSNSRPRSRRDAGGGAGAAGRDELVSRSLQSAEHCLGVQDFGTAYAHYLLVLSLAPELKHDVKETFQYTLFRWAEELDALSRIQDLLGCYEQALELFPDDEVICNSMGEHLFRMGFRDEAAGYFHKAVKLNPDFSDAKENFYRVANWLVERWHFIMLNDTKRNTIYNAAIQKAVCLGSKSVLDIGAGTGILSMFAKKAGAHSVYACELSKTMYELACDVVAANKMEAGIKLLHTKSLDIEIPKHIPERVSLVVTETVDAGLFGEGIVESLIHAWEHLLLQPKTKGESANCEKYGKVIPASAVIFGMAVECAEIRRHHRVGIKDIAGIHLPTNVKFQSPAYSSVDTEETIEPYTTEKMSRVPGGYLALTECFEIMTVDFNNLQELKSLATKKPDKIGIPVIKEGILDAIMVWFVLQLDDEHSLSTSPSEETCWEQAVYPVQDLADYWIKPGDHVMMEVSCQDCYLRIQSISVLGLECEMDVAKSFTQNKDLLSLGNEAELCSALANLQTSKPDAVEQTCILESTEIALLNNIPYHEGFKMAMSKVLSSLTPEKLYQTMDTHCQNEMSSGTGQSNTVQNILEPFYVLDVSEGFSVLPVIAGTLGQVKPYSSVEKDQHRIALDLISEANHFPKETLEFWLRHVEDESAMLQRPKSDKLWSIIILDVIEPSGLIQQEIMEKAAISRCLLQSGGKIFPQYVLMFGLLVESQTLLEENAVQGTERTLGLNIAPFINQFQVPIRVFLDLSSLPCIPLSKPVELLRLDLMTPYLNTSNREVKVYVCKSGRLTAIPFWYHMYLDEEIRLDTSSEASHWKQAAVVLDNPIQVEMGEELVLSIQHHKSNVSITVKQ

[3] = target: T2, Serine/threonine-protein kinase Nek3 (Homo sapiens) (UniProt P51956); assay: Selectivity interaction (ProQinase) EUB0000171b NEK3
T2 sequence (whole entry): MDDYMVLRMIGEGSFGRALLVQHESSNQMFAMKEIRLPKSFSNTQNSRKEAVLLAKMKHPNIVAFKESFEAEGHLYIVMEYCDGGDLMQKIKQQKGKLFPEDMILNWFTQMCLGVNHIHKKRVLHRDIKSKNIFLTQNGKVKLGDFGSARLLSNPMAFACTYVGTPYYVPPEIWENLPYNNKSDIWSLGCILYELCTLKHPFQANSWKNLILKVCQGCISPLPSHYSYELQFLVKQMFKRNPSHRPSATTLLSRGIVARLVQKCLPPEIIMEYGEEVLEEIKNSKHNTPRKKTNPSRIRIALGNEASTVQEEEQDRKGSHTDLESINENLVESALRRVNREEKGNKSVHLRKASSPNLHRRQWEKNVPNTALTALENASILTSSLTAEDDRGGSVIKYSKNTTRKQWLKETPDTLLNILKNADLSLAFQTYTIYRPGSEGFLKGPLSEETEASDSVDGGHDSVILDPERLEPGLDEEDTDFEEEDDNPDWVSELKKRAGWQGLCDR

[4] = target: T3, Histone-lysine N-methyltransferase NSD3 (Homo sapiens) (UniProt Q9BZ95); assay: Selectivity interaction (Methyltransferase screen (Scintillation proximity assays)) EUB0000255b NSD3
T3 sequence (whole entry): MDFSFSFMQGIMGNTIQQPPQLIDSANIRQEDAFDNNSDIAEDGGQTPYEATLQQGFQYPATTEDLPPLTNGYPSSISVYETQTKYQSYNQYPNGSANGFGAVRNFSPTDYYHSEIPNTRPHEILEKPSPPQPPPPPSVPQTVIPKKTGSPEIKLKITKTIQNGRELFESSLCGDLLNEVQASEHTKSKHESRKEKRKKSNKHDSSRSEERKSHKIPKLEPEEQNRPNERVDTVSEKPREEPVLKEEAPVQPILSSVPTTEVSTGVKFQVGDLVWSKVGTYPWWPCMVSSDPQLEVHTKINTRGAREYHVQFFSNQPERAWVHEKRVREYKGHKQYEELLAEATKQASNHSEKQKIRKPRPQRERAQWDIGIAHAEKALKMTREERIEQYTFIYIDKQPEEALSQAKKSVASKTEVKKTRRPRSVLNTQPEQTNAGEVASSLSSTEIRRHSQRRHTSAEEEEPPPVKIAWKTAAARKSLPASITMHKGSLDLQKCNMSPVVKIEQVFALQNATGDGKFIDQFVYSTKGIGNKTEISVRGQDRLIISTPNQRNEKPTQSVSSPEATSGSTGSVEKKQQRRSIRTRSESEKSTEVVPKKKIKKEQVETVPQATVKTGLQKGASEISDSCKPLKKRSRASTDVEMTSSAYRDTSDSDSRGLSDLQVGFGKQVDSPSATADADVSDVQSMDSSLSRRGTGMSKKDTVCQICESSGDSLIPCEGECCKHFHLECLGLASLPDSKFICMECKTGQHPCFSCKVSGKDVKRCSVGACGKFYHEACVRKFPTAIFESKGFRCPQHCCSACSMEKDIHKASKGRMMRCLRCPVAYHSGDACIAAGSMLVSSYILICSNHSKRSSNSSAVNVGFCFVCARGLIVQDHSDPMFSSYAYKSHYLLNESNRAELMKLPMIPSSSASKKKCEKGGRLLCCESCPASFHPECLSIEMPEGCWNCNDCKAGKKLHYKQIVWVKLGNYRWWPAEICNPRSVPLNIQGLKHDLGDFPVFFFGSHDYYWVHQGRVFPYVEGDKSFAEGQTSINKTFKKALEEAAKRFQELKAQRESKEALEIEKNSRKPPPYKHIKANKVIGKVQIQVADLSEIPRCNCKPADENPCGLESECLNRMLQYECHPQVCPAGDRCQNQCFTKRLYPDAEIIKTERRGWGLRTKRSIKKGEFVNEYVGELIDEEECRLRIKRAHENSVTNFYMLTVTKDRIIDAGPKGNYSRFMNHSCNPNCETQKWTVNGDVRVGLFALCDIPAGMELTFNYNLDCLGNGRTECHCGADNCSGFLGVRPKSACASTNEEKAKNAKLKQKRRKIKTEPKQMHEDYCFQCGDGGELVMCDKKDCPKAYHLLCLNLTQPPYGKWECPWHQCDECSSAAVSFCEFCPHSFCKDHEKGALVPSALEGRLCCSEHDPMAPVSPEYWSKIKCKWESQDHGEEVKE

[5] = target: Microtubule-associated serine/threonine-protein kinase 1 (Homo sapiens) (UniProt Q9Y2H9); assay: Selectivity interaction (KinomeScan (DiscoverX)) EUB0000655a MAST1; conditions: at 10 µM
Microtubule-associated serine/threonine-protein kinase 1 (Homo sapiens), sequence (Q9Y2H9 whole entry, looked up): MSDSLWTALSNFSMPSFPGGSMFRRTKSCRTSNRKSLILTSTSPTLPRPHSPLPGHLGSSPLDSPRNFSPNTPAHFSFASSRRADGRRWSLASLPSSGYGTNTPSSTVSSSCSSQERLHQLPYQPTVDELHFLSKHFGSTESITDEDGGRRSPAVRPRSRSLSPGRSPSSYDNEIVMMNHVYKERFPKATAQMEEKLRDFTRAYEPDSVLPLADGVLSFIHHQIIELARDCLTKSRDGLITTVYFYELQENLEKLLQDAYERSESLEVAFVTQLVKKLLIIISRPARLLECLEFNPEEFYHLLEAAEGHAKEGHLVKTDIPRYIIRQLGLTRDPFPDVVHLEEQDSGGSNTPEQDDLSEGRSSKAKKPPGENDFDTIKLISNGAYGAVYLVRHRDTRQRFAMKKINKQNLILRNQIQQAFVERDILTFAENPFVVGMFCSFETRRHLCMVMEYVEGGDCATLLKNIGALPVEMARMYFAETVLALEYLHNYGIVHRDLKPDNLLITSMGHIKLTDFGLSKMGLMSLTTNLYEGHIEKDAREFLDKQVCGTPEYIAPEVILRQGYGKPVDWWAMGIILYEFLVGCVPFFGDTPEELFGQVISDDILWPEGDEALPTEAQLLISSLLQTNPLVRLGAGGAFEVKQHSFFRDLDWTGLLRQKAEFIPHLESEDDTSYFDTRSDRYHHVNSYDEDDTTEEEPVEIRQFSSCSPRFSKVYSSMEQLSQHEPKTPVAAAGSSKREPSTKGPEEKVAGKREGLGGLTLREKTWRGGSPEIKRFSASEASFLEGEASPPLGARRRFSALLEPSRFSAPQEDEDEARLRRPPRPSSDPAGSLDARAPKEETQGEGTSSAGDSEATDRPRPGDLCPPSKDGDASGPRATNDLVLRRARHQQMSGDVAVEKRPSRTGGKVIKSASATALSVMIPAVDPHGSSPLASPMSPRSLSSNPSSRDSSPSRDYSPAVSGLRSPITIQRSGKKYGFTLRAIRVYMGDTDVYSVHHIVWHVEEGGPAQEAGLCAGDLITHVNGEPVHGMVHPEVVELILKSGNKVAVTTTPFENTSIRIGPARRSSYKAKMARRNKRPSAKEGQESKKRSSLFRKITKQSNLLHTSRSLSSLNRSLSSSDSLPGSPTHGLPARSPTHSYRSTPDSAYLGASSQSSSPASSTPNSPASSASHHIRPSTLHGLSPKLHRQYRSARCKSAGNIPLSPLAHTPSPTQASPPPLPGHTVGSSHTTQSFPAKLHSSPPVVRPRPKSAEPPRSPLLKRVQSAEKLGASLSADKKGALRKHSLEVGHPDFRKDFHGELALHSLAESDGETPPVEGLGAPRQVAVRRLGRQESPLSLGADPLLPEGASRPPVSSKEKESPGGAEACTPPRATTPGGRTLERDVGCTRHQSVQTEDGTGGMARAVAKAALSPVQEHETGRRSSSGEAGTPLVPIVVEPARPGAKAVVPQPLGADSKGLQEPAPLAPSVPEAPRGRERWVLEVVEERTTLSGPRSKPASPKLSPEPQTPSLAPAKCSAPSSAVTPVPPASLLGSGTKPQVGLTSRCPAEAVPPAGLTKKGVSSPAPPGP

Receptor-type tyrosine-protein kinase FLT3 (Homo sapiens), P36888 [UNDEFINED MUTATION], sequence (P36888 whole entry, looked up, change not shown): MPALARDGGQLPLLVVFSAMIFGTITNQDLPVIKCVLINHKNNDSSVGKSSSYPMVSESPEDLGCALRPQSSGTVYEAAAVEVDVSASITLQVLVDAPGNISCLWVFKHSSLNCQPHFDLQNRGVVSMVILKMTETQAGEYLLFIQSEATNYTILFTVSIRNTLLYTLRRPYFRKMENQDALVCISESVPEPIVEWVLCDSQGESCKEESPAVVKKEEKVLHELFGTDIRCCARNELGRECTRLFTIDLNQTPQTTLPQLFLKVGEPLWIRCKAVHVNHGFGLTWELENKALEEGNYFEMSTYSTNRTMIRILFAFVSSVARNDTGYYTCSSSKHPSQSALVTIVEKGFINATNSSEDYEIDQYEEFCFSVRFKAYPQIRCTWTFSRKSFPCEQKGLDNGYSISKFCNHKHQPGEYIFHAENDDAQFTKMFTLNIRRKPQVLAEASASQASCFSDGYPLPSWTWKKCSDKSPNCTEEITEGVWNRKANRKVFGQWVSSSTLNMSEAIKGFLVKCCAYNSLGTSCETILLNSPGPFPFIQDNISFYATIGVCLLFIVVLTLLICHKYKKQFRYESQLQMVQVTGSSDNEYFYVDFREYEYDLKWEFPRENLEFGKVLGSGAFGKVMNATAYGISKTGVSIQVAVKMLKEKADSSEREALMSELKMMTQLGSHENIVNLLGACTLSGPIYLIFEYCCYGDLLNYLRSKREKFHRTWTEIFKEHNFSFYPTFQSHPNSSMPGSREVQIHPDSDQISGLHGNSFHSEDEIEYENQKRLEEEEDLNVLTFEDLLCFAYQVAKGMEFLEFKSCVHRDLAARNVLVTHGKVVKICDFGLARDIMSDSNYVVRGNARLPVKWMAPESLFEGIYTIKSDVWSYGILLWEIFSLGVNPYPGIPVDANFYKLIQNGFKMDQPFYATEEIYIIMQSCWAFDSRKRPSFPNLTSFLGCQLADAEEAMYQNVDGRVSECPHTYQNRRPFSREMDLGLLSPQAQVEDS

Structure (SMILES): COCCN1CCC(c2cc(CN(C)C(=O)c3cccc(Oc4ccccc4)c3)ccn2)CC1
- % activity ([4]; at 1 µM): > 95%
- % activity ([4]; at 10 µM): > 90%

Structure (SMILES): CN(C)CCOc1ccc(-c2nc(-c3ccncc3)c(-c3ccc4c(c3)CC/C4=N\O)[nH]2)cc1
- % of control [5]: 100%

Further lines, results first:

- % of control [1]: 12%
Structure (SMILES): CCc1ccccc1C(=O)Nc1n[nH]c2c(C)c(F)c(C3C(C#N)=C(C)N(C)C(C)=C3C#N)cc12 [BAY-3827]

- % activity ([2]; at 1 µM): > 90%
- % activity ([2]; at 10 µM): > 80%
Structure (SMILES): Cc1cc(CN)cc(C)c1-c1ncn(C)c1-c1cncn1C

- % of control ([3]; at 1 µM): 73%
- % of control ([3]; at 5 µM): 50%
Structure (SMILES): C=CC(=O)Nc1cccc(C(=O)Nc2ccc(Nc3cc(-c4[nH]c(SC)nc4C)ccn3)cc2)c1

From ChEMBL document CHEMBL5465560, “Selectivity Literature for EUbOPEN Chemogenomic Library” (2024)
